Laboratory results published in the SangsterLogP compilation.

Assay: not given
Conditions: not given

| Structure (SMILES) | logP |
| --- | --- |
| O=[N+]([O-])c1cccc(Cl)c1Cl | 3.01 |
| Cc1ccc(Cl)cc1[N+](=O)[O-] | 3.05 |
| Cc1ccc([N+](=O)[O-])cc1C | 2.91 |
| O=[N+]([O-])c1cc(Cl)cc(Cl)c1 | 3.13 |
| Cc1cccc([N+](=O)[O-])c1C | 2.83 |

Assay: not given
Conditions: not given
Remark: another data set of the same source

| Structure (SMILES) | logP |
| --- | --- |
| ClC(Cl)(Cl)C(Cl)(Cl)Cl | 3.82 |
| Cc1ccc(Cl)cc1 | 3.42 |
| Nc1ccccc1Cl | 1.74 |
| Nc1cc(Cl)c(Cl)c(Cl)c1Cl | 3.94 |
| Cc1c(Cl)cccc1Cl | 4.29 |

Assay: not given
Conditions: not given
Remark: another data set of the same source

| logP | Structure (SMILES) |
| --- | --- |
| -2.33 | CC(=O)N(CCO)c1c(I)c(C(=O)N(C)CC(O)CO)c(I)c(C(=O)N(C)CC(O)CO)c1I (centres undefined) |
| -2.4 | CC(=O)N(CCO)c1c(I)c(C(=O)NCC(O)CO)c(I)c(C(=O)NCC(O)CO)c1I (centres undefined) |
| -1.84 | CC(=O)N(CC(O)CO)c1c(I)c(C(=O)NCCO)c(I)c(C(=O)NCCO)c1I (centres undefined) |
| -2.14 | CC(=O)Nc1c(I)c(C(=O)N(C)CC(O)CO)c(I)c(C(=O)N(C)CC(O)CO)c1I (centres undefined) |
| -2.13 | CC(=O)N(C)c1c(I)c(C(=O)NCC(O)CO)c(I)c(C(=O)NCC(O)CO)c1I (centres undefined) |
| -2.22 | CC(=O)Nc1c(I)c(C(=O)NC(CO)CO)c(I)c(C(=O)NC(CO)CO)c1I |

Assay: method code SF-AS, from PMID: 3699148
Conditions: pH 7.4

| logD | Structure (SMILES) |
| --- | --- |
| 2.27 | CCCCOCCNc1ccccc1C(N)=O |
| 2.99 | CCCCOCCNc1ccc(Cl)cc1C(N)=O |
| 0.7 | NC(=O)c1ccccc1NCCCO |
| 2.94 | Cc1ccccc1OCCNc1ccccc1C(N)=O |
| -0.8 | NC(=O)c1ccccc1NCC(O)CO (centres undefined) |
| 0.62 | CC(O)CNc1ccccc1C(N)=O (centres undefined) |

Assay: not given
Conditions: not given
Remark: another data set of the same source

| logP | Structure (SMILES) |
| --- | --- |
| 3.13 | CCCCCCN1C(=O)NC(Cc2c[nH]c3ccccc23)C1=O (centres undefined) |
| 3.03 | O=C1NC(Cc2c[nH]c3ccccc23)C(=O)N1Cc1cccc2ccccc12 (centres undefined) |
| 6.95 | CCCCCCCN1C(=O)NC(c2ccc(Br)cc2)(c2ccc(Br)cc2)C1=O |
| 6.39 | CCCCCCN1C(=O)NC(c2ccc(Br)cc2)(c2ccc(Br)cc2)C1=O |
| 2.86 | CCCN1C(=O)NC(c2ccccc2)(c2ccccc2)C1=O |

| Structure (SMILES) | logP |
| --- | --- |
| O=C1NC(c2ccc(Br)cc2)(c2ccc(Br)cc2)C(=O)N1CCN1CCOCC1 | 4.59 |

Assay: not given
Conditions: not given
Remark: another data set of the same source

| logP | Structure (SMILES) |
| --- | --- |
| 2.79 | C=C(C)C(=O)OCC(C)(C)COC(=O)C(=C)C |
| 1.56 | C=C(C)C(=O)OCC(F)(F)F |
| 1.86 | C=C(C)C(=O)OCCCOC(=O)C(=C)C |
| 1.22 | C=C(C)C(=O)OCCOC(=O)C(=C)C |
| 4.92 | C=C(C)C(=O)OCCCCCCCC(C)C |

Assay: not given
Conditions: not given
Remark: another data set of the same source

| logP | Structure (SMILES) |
| --- | --- |
| 2.59 | Brc1ccsc1 |
| 4.82 | O=c1cc(-c2ccccc2)oc2c1ccc1ccccc12 |
| 4.24 | Cc1cc(C)c(C)cc1C |

| Structure (SMILES) | logP |
| --- | --- |
| c1ccc(-c2ccc(-c3ccccc3)cc2)cc1 | 6.03 |
| O=[N+]([O-])c1ccc(O)c([N+](=O)[O-])c1 | 1.79 |

Assay: not given
Conditions: not given
Remark: another data set of the same source

| logP | Structure (SMILES) |
| --- | --- |
| 0.9 | CCC(C)(C)N |
| -0.05 | CC(C)(O)C(C)(C)O |
| 0.19 | CC(C)CC(N)=O |
| -0.43 | OCCCCCO |

| Structure (SMILES) | logP |
| --- | --- |
| CC(O)CCO (centres undefined) | -0.79 |

Assay: not given
Conditions: not given
Remark: another data set of the same source

| logP | Structure (SMILES) |
| --- | --- |
| 4.16 | O=C(CCCCCN1CCC(O)(c2ccc(Cl)cc2)CC1)c1ccc(F)cc1 |
| 3.26 | OC(CCCN1CCC(O)(c2ccc(Cl)cc2)CC1)c1ccc(F)cc1 (centres undefined) |
| 4.17 | OC1(c2ccc(Cl)cc2)CCN(CCCSc2ccc(F)cc2)CC1 |
| 3.24 | O=C(CCN1CCC(O)(c2ccc(Cl)cc2)CC1)c1ccc(F)cc1 |
| 4.2 | CC(C)c1ccc(C(=O)CCCN2CCC(O)(c3ccc(Cl)cc3)CC2)cc1 |
| 3.81 | O=C(CCCCN1CCC(O)(c2ccc(Cl)cc2)CC1)c1ccc(F)cc1 |

Assay: method code SF-AS, from DOI: 10.1093/chemse/13.4.619
Conditions: pH 7.2

| logD | Structure (SMILES) |
| --- | --- |
| 0.4 | COC(=O)c1ccccn1 |
| 0.72 | COC(=O)c1cccnc1 |
| 1.58 | c1ccc(-c2ccncc2)nc1 |

| Structure (SMILES) | logD |
| --- | --- |
| c1ccc(-c2cccnc2)nc1 | 1.46 |
| O/N=C/c1cccnc1 | 0.68 |

Assay: method code SF-AS, from DOI: 10.1016/s0003-2670(01)80868-0
Conditions: not given

| logP | Structure (SMILES) |
| --- | --- |
| 1.67 | CC(=O)CC(=O)C(C)(C)C |
| 2.23 | CCCC(=O)CC(=O)CCC |
| 0.14 | CC(=O)CC(C)=O |
| 2.22 | CC(C)C(=O)CC(=O)C(C)C |
| 1.12 | CCC(=O)CC(=O)CC |

Assay: method code SF-AS, from DOI: 10.1007/bf00165040, PMID: 3033523
Conditions: pH 7.4

| Structure (SMILES) | logD |
| --- | --- |
| CC(C)(C)Sc1nc2c(N)ncnc2n1C1OC2COP(=O)(Oc3ccccc3)OC2C1O (centres undefined) | 2.05 |
| Nc1ncnc2c1nc(Br)n2C1OC2COP(=O)(Oc3ccccc3)OC2C1O (centres undefined) | 1.58 |

The next lines start with the values.

| logD | Structure (SMILES) |
| --- | --- |
| 2.24 | Nc1ncnc2c1nc(Sc1ccc(Cl)cc1)n2C1OC2COP(=O)(OCc3ccccc3)OC2C1O (centres undefined) |
| 1.92 | Nc1ncnc2c1nc(Sc1ccccc1)n2C1OC2COP(=O)(OCc3ccccc3)OC2C1O (centres undefined) |
| 1.62 | CSc1nc2c(N)ncnc2n1C1OC2COP(=O)(OCc3ccccc3)OC2C1O (centres undefined) |
| -1.15 | Nc1ncnc2c1nc(SCc1ccccc1)n2[C@@H]1O[C@@H]2COP(=O)(O)O[C@H]2[C@H]1O |

Assay: method code SF-RC, from DOI: 10.1021/jm301492y, PMID: 23214511
Conditions: pH 7.4

| Structure (SMILES) | logD |
| --- | --- |
| O=C(NC1CCCC1)c1cccc(C2=NCCO2)c1 | 2.35 |
| O=C(NC1CCCCC1)c1cccc(C2=NCCO2)c1 | 3.01 |

Next, values leading:

| logD | Structure (SMILES) |
| --- | --- |
| 3.42 | O=C(NC1CCC1)c1ccc(O)c(-c2ccccc2)c1 |
| 3.33 | CCCCCCNC(=O)c1cccc(C2=NCCO2)c1 |
| 2.8 | O=C(NC1CCCC1)c1ccc(O)c(-c2ccccc2)c1 |
| 3.61 | NC(=O)c1cccc(-c2cccc(C(=O)NC3CCCCC3)c2)c1 |

Assay: method code SF-AS, from DOI: 10.1021/jm00254a011, PMID: 4845376
Conditions: not given

| Structure (SMILES) | logP |
| --- | --- |
| O=[N+]([O-])c1cnc(N2CCNC2=S)s1 | 1.7 |
| O=C1NCCN1c1ncc([N+](=O)[O-])s1 | 0.91 |
| CSC1=NCCN1c1ncc([N+](=O)[O-])s1 | 1.78 |

Next, values leading:

| logP | Structure (SMILES) |
| --- | --- |
| 0.25 | O=C1NCCN1c1ccc([N+](=O)[O-])o1 |
| 1.19 | CSC1=NCCN1c1ccc([N+](=O)[O-])o1 |

Assay: method code SF-AS, from DOI: 10.1016/0147-6513(87)90041-8, PMID: 3830021
Conditions: not given

| logP | Structure (SMILES) |
| --- | --- |
| 4 | CC(=O)Nc1cc(NCC(C)O)c(Cl)cc1/N=N/c1ccc([N+](=O)[O-])cc1Cl (centres undefined) |
| 4 | CCCCn1c(=O)c2c(N)c3c(=O)c4ccccc4c(=O)c3c(N)c2c1=O |
| 4 | CCCCN(CCOC(C)=O)c1ccc(/N=N/c2c(C#N)cc([N+](=O)[O-])cc2C#N)c(C)c1 |
| 3.9 | N#CCCN(CCO)c1ccc(/N=N/c2ccc([N+](=O)[O-])cc2Cl)cc1 |
| 3.4 | CCn1c(O)c(C#N)c(C)c(/N=N/c2ccc(Cl)cc2[N+](=O)[O-])c1=O |
| 4.5 | CCCCC(CC)Cn1c(O)c(C#N)c(C)c(/N=N/c2ccccc2[N+](=O)[O-])c1=O (centres undefined) |

Assay: method code SF-GLC, from DOI: 10.1016/s0045-6535(02)00841-x, PMID: 12615110
Conditions: not given

| Structure (SMILES) | logP |
| --- | --- |
| Brc1ccc(Oc2ccccc2Br)c(Br)c1 | 5.74 |
| Brc1ccc(Oc2ccc(Br)cc2Br)cc1 | 5.94 |
| Brc1ccc(Oc2ccc(Br)c(Br)c2Br)c(Br)c1 | 7.37 |
| Brc1cc(Br)c(Oc2cc(Br)c(Br)cc2Br)cc1Br | 7.9 |
| Brc1ccc(Oc2cc(Br)c(Br)cc2Br)c(Br)c1 | 7.32 |

Assay: method code SF-RC, from DOI: 10.1016/j.nucmedbio.2006.06.006, PMID: 16934700
Conditions: pH 7.4

| logD | Structure (SMILES) |
| --- | --- |
| 2.87 | Nc1ccc(-c2cc3ccccc3s2)cc1 |
| 2.99 | Oc1ccc(-c2cc3ccccc3s2)cc1 |
| 3.44 | CN(C)c1ccc(-c2cc3ccccc3s2)cc1 |
| 3.2 | CNc1ccc(-c2cc3ccccc3s2)cc1 |
| 3.46 | FCCNc1ccc(-c2cc3ccccc3s2)cc1 |
| 2.83 | FCCOc1ccc(-c2cc3ccccc3s2)cc1 |

Assay: from Pratesi, P.; Villa, L.; Ferri, V.; DeMicheli, C.; Grana, E.; Grieco, C.; Silipo, C.; Vittoria, A. (1979). On the additive-constitutive properties of substituent hydrophobic parameters in a set of …
Conditions: not given

| Structure (SMILES) | logP |
| --- | --- |
| O=C(O)CCCC(=O)O | -0.29 |
| C=CC#N | 0.25 |
| OCCNc1ccccc1 | 0.82 |
| c1ccc(C2CO2)cc1 (centres undefined) | 1.84 |
| CC(=O)CCC(=O)O | -0.49 |

Assay: method code SF-AS, from Dallet, P.; Dubost, J.; Colleter, J.; Audry, E.; Creuzet, M. (1985). QSAR in a series of alpha-adrenolitic molecules: optimization of physicochemical parameters. Eur J Med Chem, 20(6)551-557.
Conditions: not given

| Structure (SMILES) | logP |
| --- | --- |
| CNCCOc1cc(C)c(O)cc1C(C)C | 2.35 |
| Cc1cc(OCCN(C)C)c(C(C)C)cc1OC1CCCCC1=O (centres undefined) | 3.63 |

Other lines, results leading:

| logP | Structure (SMILES) |
| --- | --- |
| 3.17 | CC(=O)Oc1cc(C(C)C)c(OCCN(C)C)cc1C |
| 2.93 | Cc1cc(OCCN(C)C)c(C(C)C)cc1O |
| 3.79 | Cc1ccc(C(C)C)c(OCCN(C)C)c1 |
| 3.12 | COc1cccc(OC)c1OCCN(C)CCOc1cc(C)c(O)cc1C(C)C |
